The text below walks through data of patent USRE30511E, “Imidazo[1,5-d]-as-triazine-4(3H)-ones and thiones” (American Cyanamid Company, priority 1979, dated 1981).

For data set [1], the system named is Mouse Skin Phosphodiesterase. The data set can be described thus: Mouse skin phosphodiesterase (PDE) inhibition test. On the set-up: key: Active: A compound is considered active if it inhibits more than theophylline, that is, to 50% of control at 1 mM concentration of compound, or to 80% of control of 0.05 mM concentration of compound. It counts as biochemical, Hairless mice. Particulars: 10 ug./ml. final concentration; 30° C. for 15 minutes.

For data set [2], the system named is Monkey Lung Cyclic AMP Phosphodiesterase. The data set can be described thus: Monkey lung phosphodiesterase inhibition test. The class given is biochemical, African green monkeys. To be noted: usually 1 mM or 0.1 mM; pH 7.4, 25° C. for 20 minutes. The protocol: Lung parenchyma of African green monkeys is homogenized in a Waring blender and centrifuged at 40,000×gravity for 20 minutes. The supernatant is brought to 70% saturation of ammonium sulfate, centrifuged and the pellet redissolved and dialysed, before aliquoting and storage at --20° C.
Phosphodiesterase is assayed by the method of Thompson and Appleman, ibid. An assay tube contains a 0.4 ml. solution of the following: 45 mM tris-HCl buffer, pH 7.4, […], 0.1 mM dithioerythritol, 10^-6 M cyclic AMP, 0.1 uCi [^3 H]-cyclic AMP, and test compound at the desired concentration (usually 1 mM or 0.1 mM). Compounds not readily soluble in water are dissolved at 40 times the desired concentration in methanol, and diluted 20 times with water. If the compound is not dissolved at this time, it is suspended by sonication before being diluted 1:2 into the assay tube. In this case the activity of the enzyme in the presence of the compound is compared to a solvent control (2.5% methanol), although the solvent alone has negligible effect. The reaction is initiated by addition of enzyme and proceeds at 25° C. for 20 minutes. It is terminated by incubation at 100° C. for 2 minutes. The tubes are cooled to 25° C., 0.8 ug of 5'-nucleotidase (Crotolu adamantus toxin) is added to each and the tubes incubated at 25° C. for 30 minutes. A 1 milliliter suspension of Bio-Rad Labs. AGIX8 (about 0.5 ml. of settled resin) is added, the tubes centrifuged at 900×gravity for 10 minutes and an aliquot of supernatant removed for scintillation counting. The inhibition by the test compound is calculated as: [formula] where `compound` is the cpm in the presence of compound, `control` is the cpm in the absence of compound, and `blank` is the cpm in the absence of enzyme. […] For this reason, control tubes which contained [^3 H]-AMP instead of [^3 H]-cyclic AMP are run in parallel. A correction of the apparent phosphodiesterase activity is made for the rare compound which inhibited the hydrolysis of AMP.

Data set [3] is described as follows: Dispersion of aerosol suspension on warming after storage. The class given is physicochemical. Particulars: aerosol suspension in dichlorodifluoromethane with sorbitan trioleate, sonified. The method, then:
The active ingredient and sorbitan trioleate are placed in a beaker and the dichlorodifluoromethane is added at -40° C. whereupon a suspension is formed. The mixture is sonified, that is, treated with a Sonifier, manufactured by the Branson Sonic Power Co. of Danbury, Conn., as model LS-75 at a current input of 9 amperes for 2 minutes. Additional cold dichlorodifluoromethane is added as necessary to keep the volume at 100 ml. The mixture is uniformly dispersed, and has increased stability resulting from the sonification. Each of six 19 ml. stainless steel containers are filled with 15 ml. of the cold mixture, then valves are inserted and sealed in place.

Consider `Cc1nc(C)n2c(=O)[nH]ncc12` [6,8-Dimethyl-imidazo[1,5-d]-as-triazin-4(3H)-one], for which, in data set [1], the “Mouse Skin Phosphodiesterase (A)” value is “Active”. For the same molecule, the “Monkey lung phosphodiesterase inhibition (B)” value in data set [2] is recorded as “Active”.

For the molecule `Cc1nc(C)n2c(=S)[nH]ncc12` [6,8-Dimethyl-imidazo[1,5-d]-as-triazine-4-(3H)-thione], the “Mouse Skin Phosphodiesterase (A)” value in data set [1] was “Active”.

Regarding `Cc1nc(Cc2ccccc2)n2c(=O)[nH]ncc12` [6-Benzyl-8-methyl-imidazo[1,5-d]-as-triazin-4(3H)-one], the “Mouse Skin Phosphodiesterase (A)” value in data set [1] is “Active”.

As for `Cc1nc(Cc2ccccc2)n2c(=S)[nH]ncc12` [6-Benzyl-8-methyl-imidazo[1,5-d]-as-triazine-4(3H)-thione], the “Mouse Skin Phosphodiesterase (A)” value in data set [1] was “Active”. The “Monkey lung phosphodiesterase inhibition (B)” value in data set [2] was “Active”.

With `O=c1[nH]ncc2cnc(Cc3ccccc3)n12` [6-Benzyl-imidazo[1,5-d]-as-triazin-4(3H)-one], the “Mouse Skin Phosphodiesterase (A)” value in data set [1] is listed as “Active”.

Take `O=c1[nH]ncc2cnc(-c3ccccc3)n12` [6-Phenyl-imidazo[1,5-d]-as-triazin-4(3H)-one]: in data set [1], the “Mouse Skin Phosphodiesterase (A)” value is listed as “Active”.

Take `CCCc1ncc2cn[nH]c(=O)n12` [6-n-Propyl-imidazo[1,5-d]-as-triazin-4(3H)-one]: in data set [1], the “Mouse Skin Phosphodiesterase (A)” value is recorded as “Active”.

Regarding `CCCc1ncc2cn[nH]c(=S)n12` [6-n-Propyl-imidazol[1,5-d]-as-triazine-4(3H)-thione], the “Mouse Skin Phosphodiesterase (A)” value in data set [1] was “Active”. Further, the “Monkey lung phosphodiesterase inhibition (B)” value in data set [2] is given as “Active”.

`CCCOc1ccccc1-c1ncc2cn[nH]c(=O)n12` [6-o-Propoxyphenyl-imidazo[1,5-d]-as-triazine-4(3H)-one]: the “Mouse Skin Phosphodiesterase (A)” value in data set [1] is recorded as “Active”.

As to `Cc1nc(C(C)(C)C)n2c(=O)[nH]ncc12` [6-tert-Butyl-8-methyl-imidazo[1,5-d]-as-triazin-4(3H)-one], the “Mouse Skin Phosphodiesterase (A)” value in data set [1] is listed as “Active”. Also, in data set [2], the “Monkey lung phosphodiesterase inhibition (B)” value is “Active”.

For `CC(C)(C)c1ncc2cn[nH]c(=O)n12` [6-tert-Butyl-imidazo[1,5-d]-as-triazin-4(3H)-one], in data set [1], the “Mouse Skin Phosphodiesterase (A)” value is reported as “Active”.

For the molecule `O=c1[nH]ncc2c(Br)nc(-c3ccccc3)n12` [8-Bromo-6-phenyl-imidazo[1,5-d]-as-triazin-4(3H)-one], the “Mouse Skin Phosphodiesterase (A)” value in data set [1] is listed as “Active”. Also, in data set [2], the “Monkey lung phosphodiesterase inhibition (B)” value is recorded as “Active”.

On to `O=c1[nH]ncc2c(Cl)nc(-c3ccccc3)n12` [8-Chloro-6-phenyl-imidazo[1,5-d]-as-triazin-4(3H)-one], for which, in data set [1], the “Mouse Skin Phosphodiesterase (A)” value was “Active”. Besides, the “Monkey lung phosphodiesterase inhibition (B)” value in data set [2] is given as “Active”.

On to `CCCc1nc(C)c2cn[nH]c(=S)n12` [8-Methyl-6-n-propyl-imidazolo[1,5-d]-as-triazine-4(3H)-thione], for which, in data set [1], the “Mouse Skin Phosphodiesterase (A)” value is listed as “Active”. For the same molecule, the “Monkey lung phosphodiesterase inhibition (B)” value in data set [2] is “Active”.

For `Cc1nc(-c2ccccc2)n2c(=O)[nH]ncc12` [8-Methyl-6-phenyl-imidazo[1,5-d]-as-triazin-4(3H)-one], the “Mouse Skin Phosphodiesterase (A)” value in data set [1] is “Active”. Besides, the “Monkey lung phosphodiesterase inhibition (B)” value in data set [2] is listed as “Active”.

For `Cc1nc(-c2ccccc2)n2c(=S)[nH]ncc12` [8-Methyl-6-phenyl-imidazo[1,5-d]-as-triazine-4-(3H)-thione], the “Mouse Skin Phosphodiesterase (A)” value in data set [1] was “Active”.

In the case of `Cc1ncn2c(=O)[nH]ncc12` [8-Methyl-imidazo[1,5-d]-as-triazin-4(3H)-one], the “Mouse Skin Phosphodiesterase (A)” value in data set [1] is “Active”.

With `Cc1ncn2c(=S)[nH]ncc12` [8-Methyl-imidazo[1,5-d]-as-triazine-4-(3H)-thione], the “Mouse Skin Phosphodiesterase (A)” value in data set [1] was “Active”.

Take `CC(C)c1nc(Cl)c2cn[nH]c(=S)n12` [8-chloro-6-isopropyl-imidazo[1,5-d]-as-triazine-4(3H)-thione]: the “dispersion of the aerosol suspension” value in data set [3] is “remains dispersed”.
